In ChEMBL document CHEMBL5465560, “Selectivity Literature for EUbOPEN Chemogenomic Library” (2024) one finds % of control, % of inhibition and % binding data, which are given here for four compounds.

Assay [1] has as its target T1, Tyrosine-protein kinase receptor TYRO3 (Homo sapiens) (UniProt Q06418).
T1 sequence (whole entry): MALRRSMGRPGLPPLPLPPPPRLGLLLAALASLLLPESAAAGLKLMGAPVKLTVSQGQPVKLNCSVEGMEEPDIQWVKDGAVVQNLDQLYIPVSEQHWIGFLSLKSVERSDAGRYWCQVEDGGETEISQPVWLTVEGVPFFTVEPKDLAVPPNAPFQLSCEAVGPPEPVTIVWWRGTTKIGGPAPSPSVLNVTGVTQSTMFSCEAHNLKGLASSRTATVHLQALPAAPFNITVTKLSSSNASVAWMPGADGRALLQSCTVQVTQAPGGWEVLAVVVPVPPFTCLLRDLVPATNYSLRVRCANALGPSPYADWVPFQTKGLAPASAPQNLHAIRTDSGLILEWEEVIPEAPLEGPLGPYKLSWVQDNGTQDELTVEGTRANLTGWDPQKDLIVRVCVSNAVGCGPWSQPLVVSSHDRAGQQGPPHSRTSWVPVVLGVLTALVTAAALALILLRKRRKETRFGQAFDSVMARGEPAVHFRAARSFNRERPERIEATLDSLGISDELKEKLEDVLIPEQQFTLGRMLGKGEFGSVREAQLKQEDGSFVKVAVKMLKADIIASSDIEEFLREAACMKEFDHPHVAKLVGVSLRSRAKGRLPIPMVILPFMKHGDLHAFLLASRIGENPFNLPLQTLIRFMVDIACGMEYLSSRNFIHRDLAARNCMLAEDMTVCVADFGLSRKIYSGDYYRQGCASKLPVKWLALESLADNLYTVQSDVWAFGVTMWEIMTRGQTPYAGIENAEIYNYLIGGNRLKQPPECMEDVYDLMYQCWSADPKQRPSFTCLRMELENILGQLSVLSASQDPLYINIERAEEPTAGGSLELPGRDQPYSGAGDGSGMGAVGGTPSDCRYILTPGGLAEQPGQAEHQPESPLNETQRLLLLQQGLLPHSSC
Put plainly: Selectivity interaction (KinomeScan (DiscoverX)) EUB0000695a TYRO3. Conditions: at 100 nM.

For assay [2], the target named is T2, Diacylglycerol kinase eta (Homo sapiens) (UniProt Q86XP1).
T2 sequence (whole entry): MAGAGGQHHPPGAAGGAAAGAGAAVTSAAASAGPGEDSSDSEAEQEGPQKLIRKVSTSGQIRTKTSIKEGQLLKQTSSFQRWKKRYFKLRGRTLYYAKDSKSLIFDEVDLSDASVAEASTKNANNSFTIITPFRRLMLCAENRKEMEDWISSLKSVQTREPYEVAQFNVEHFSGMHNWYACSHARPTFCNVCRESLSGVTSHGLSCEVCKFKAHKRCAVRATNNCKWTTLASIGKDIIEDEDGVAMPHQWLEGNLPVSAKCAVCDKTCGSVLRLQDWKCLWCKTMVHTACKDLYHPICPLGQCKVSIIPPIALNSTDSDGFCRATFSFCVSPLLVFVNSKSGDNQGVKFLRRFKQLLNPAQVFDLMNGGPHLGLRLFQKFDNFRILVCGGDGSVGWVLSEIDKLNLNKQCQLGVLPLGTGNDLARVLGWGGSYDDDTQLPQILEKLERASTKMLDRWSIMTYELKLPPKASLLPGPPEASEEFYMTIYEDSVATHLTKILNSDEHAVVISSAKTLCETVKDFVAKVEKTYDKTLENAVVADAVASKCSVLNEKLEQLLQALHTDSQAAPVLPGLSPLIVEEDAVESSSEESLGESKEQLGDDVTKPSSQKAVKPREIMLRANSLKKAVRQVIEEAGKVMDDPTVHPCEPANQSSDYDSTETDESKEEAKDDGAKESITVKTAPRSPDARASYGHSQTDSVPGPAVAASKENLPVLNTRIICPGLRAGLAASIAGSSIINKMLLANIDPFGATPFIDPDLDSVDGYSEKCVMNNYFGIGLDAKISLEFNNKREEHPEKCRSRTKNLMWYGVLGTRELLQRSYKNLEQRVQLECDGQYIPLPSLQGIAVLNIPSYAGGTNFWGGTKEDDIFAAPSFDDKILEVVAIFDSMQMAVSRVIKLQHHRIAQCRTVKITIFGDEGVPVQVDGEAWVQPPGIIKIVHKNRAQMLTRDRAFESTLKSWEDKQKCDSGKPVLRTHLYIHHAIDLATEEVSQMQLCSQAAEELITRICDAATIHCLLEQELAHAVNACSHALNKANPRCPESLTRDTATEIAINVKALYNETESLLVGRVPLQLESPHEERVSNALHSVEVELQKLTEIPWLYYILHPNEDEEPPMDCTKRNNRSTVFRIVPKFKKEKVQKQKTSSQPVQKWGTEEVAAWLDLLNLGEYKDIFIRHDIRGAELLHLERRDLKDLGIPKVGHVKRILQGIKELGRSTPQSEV
Description: Selectivity interaction (ActivX KiNativ screen (kinase selectivity in THP-1 cell lysates)) EUB0000639a DGKH. Conditions: lysate. Type of assay: subcellular.

Assay [3] has as its target T3, Serine/threonine-protein kinase Nek2 (Homo sapiens) (UniProt P51955).
T3 sequence (whole entry): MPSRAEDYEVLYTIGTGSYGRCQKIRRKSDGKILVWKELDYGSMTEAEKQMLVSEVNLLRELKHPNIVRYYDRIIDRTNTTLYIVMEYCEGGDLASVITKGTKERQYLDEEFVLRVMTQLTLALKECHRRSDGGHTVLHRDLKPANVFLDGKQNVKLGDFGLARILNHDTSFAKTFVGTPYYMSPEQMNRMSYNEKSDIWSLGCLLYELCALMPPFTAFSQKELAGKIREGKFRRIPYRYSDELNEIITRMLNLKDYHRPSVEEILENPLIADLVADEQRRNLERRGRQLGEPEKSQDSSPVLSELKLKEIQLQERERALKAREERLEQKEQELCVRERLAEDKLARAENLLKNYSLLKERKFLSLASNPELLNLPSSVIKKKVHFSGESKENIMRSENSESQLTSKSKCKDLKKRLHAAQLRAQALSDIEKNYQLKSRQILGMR
Put plainly: Selectivity interaction (ProQinase) EUB0000171b NEK2.

Assay [4] concerns the target Dual specificity protein kinase CLK3 (Homo sapiens, UniProt P49761). Description: Selectivity interaction (KinomeScan (DiscoverX)) EUB0000229b CLK3. Conditions: at 10 µM.

Chain of Dual specificity protein kinase CLK3 (P49761 whole entry, looked up): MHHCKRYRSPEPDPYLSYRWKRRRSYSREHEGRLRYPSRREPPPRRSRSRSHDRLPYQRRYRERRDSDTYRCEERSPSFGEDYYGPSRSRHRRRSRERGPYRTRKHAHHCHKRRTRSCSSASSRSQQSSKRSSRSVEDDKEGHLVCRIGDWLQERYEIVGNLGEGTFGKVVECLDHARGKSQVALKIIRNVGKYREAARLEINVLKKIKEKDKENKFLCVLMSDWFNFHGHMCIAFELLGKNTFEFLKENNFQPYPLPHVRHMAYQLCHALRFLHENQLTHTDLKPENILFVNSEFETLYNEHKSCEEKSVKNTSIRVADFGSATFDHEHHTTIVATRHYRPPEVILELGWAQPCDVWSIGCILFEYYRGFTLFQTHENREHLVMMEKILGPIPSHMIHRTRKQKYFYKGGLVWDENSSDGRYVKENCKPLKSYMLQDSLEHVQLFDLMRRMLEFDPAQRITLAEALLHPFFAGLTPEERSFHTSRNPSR

`Cc1cc(F)c(C(=O)Nc2cccc(-c3nncn3C(C)C)n2)cc1-n1cnc(C2CC2)c1` had a % of control in assay [1] of 86%.

Regarding `CC[C@@H]1[C@H](F)C(=O)N[C@@H]1COc1nccc2cc(C(N)=O)c(OC)cc12` [ZIMLOVISERTIB], the % of inhibition is 12.2% in assay [2] (at 0.01 µM); 0% in assay [2] (at 0.04 µM); 20% in assay [2] (at 0.2 µM); 0.8% in assay [2] (at 1 µM); -3.6% in assay [2] (at 5 µM).

As for `C=CC(=O)Nc1cccc(C(=O)Nc2ccc(Nc3cc(-c4[nH]c(SC)nc4C)ccn3)cc2)c1`, the % of control in assay [3] (at 1 µM) was determined as 92%; in assay [3] (at 5 µM), 78%.

In assay [4], `COc1cc(N(C)c2ccnc3ccc(C(F)(F)F)cc23)cc(OC)c1OC` showed a % binding of 59%.
